Measurements published in patent US9895363B2, “Methods for modulating function of proliferating cell nuclear antigen (PCNA) and treating cancer with PCNA-targeting compounds” (University of Cincinnati, priority 2010, dated 2018).
Read-outs that look alike come from different tables or passages of the source.

Tests used:
[1] = system: primary human mammary epithelial cells; test: Growth inhibition, mammary epithelial cells; type: cell-based; details: Epithelial cell, normal cells, read-out: IC50 Values, Breast Epithelial Cells
Procedure: (§1) Growth inhibitory effects of PCNA-I1 and PCNA-I2 were assessed in human cancer cell lines, mouse cancer cell lines, immortalized mouse cell lines, and human primary cell lines. Specifically, growth inhibitory effects of PCNA-I1 and PCNA-I2 were assessed using MTT staining in the following cells lines: 1) human cancer cell lines including LNCaP (androgen receptor […]), 22Rv1, DU-145, LAPC-4, and PC-3 (androgen receptor […]) prostate cancer cells; MCF-7 and T47D breast cancer cells; A375 and MDA-MB435 melanoma cells; 2) mouse cancer cell lines including TRAMP-C2RE3 prostate cancer cells, B16 and K1735 melanoma cells, UV2237 fibrosarcoma cells, and CT-26 colon cancer cells; 3) immortalized mouse lung cell lines and mouse endothelial cell lines; and 4) primary human cell lines including umbilical endothelial cells (HUVEC, PromoCell, Heidelberg, Germany), primary bone marrow mesenchymal stem cells (HuMSC, PromoCell), primary human mammary epithelial cells (HuBrEC, Lonza, Walkersville, Md.), primary human prostate epithelial cells (HuPrEC, Lonza), and primary mouse spleen lymphocytes (isolated in this laboratory), and primary mouse bone marrow stromal cells (isolated in this laboratory). […]
(§2) IC50 values were derived from growth inhibition curves. […] Inhibition of cell growth was calculated using the formula: growth inhibition (%)=(1−A570 of treated/A570 of control)×100. […]

[2] = system: Lung Endothelial Cells (immortal) (Mu-Lu-Endo); test: Growth inhibition, mouse lung endothelial cells; type: cell-based; details: for IC50: Endothelial cell
Procedure: (§3) Growth inhibitory effects of PCNA-I1 and PCNA-I2 were assessed in human cancer cell lines, mouse cancer cell lines, immortalized mouse cell lines, and human primary cell lines. Specifically, growth inhibitory effects of PCNA-I1 and PCNA-I2 were assessed using MTT staining in the following cells lines: 1) human cancer cell lines including LNCaP (androgen receptor […]), 22Rv1, DU-145, LAPC-4, and PC-3 (androgen receptor […]) prostate cancer cells; MCF-7 and T47D breast cancer cells; A375 and MDA-MB435 melanoma cells; 2) mouse cancer cell lines including TRAMP-C2RE3 prostate cancer cells, B16 and K1735 melanoma cells, UV2237 fibrosarcoma cells, and CT-26 colon cancer cells; 3) immortalized mouse lung cell lines and mouse endothelial cell lines; and 4) primary human cell lines including umbilical endothelial cells (HUVEC, PromoCell, Heidelberg, Germany), primary bone marrow mesenchymal stem cells (HuMSC, PromoCell), primary human mammary epithelial cells (HuBrEC, Lonza, Walkersville, Md.), primary human prostate epithelial cells (HuPrEC, Lonza), and primary mouse spleen lymphocytes (isolated in this laboratory), and primary mouse bone marrow stromal cells (isolated in this laboratory). PCNA-I1 and PCNA-I2 were either provided by the University of Cincinnati Drug Discovery Center (UC-DDC, Cincinnati, Ohio) or were purchased from Chembridge Co (San Diego, Calif.), ChemDiv (San Diego, Calif.), and/or Sigma-Aldrich (St Louis, Mo.).
Growth inhibitory effects of the compounds were assessed by MTT staining as described previously by Dong et al. in In Vitro Model for Intrinsic Drug Resistance: Effects of Protein Kinase C Activators on the Chemosensitivity of Cultured Human Colon Cancer Cells; Mol. Pharmacol. 1991; 39: 563-9. […]
IC50 values were derived from growth inhibition curves. […] Inhibition of cell growth was calculated using the formula: growth inhibition (%)=(1−A570 of treated/A570 of control)×100. […] The fluorescence intensity was measured at 530/580 (excitation/emission) in the FLUOstar Omega microplate reader (BMG LABTECH, Cary, N.C.). […]

LNCaP cells [3] = test: FACS analysis, LNCaP; type: cell-based, Human; details: particularly at 10 μM; FIG. 16
Procedure: Fluorescence-activated cell sorting (FACS) analysis was performed on both PC-3 cells and LNCaP cells using PCNA-I1. Specifically, cells were treated with 1 or 10 μM PCNA-I1 and sampled for the flow cytometry analysis at 24 H, 48 H, and 72 H. Expression of DNA damage and apoptosis-related proteins in PC-3 cells and LNCaP cells was also determined. Cisplatin, a well-known drug that induces DNA damage and apoptosis, was included in the experiment. LNCaP cells were treated for 6 H, 12 H, or 18 H with 10 μM PCNA-I1, 10 μM cisplatin, or both.

[4] = system: primary mouse bone marrow stromal cells; test: Growth inhibition, mouse bone marrow stromal cells; type: cell-based; details: normal cells, read-out: IC50 Values, Bone Marrow Stroma Cells
Procedure: as §1, §2

[5] = system: PC-3 prostate cancer cells; test: Growth inhibition by MTT staining, PC-3; type: cell-based, Human
Procedure: as §3
Growth inhibitory effects of the compounds were assessed by MTT staining as described previously by Dong et al. in In Vitro Model for Intrinsic Drug Resistance: Effects of Protein Kinase C Activators on the Chemosensitivity of Cultured Human Colon Cancer Cells; Mol. Pharmacol. 1991; 39: 563-9. Briefly, cells were cultured and treated in their respective media. Cells were plated into 96-well plates at 1000 to 5000 cells/well. After an overnight incubation, the cells were treated for four days with various concentrations (up to 10 μM) of PCNA-I1 or PCNA-I2. The live cells were stained with MTT and cells in exponential growth phase were harvested by a one to three minute treatment with a 0.25% trypsin-0.02% EDTA solution. Flasks were tapped to detach the cells, RPMI 1640-10% FBS was added, and the cell suspensions were gently agitated to produce single-cell suspensions. The cell suspensions were washed and resuspended in medium with supplements specified for different cells. Only suspensions of single cells with a viability exceeding 95% (ascertained by trypan blue exclusion) were used.
IC50 values were derived from growth inhibition curves. Data for tumor cells are a mean of five to seven experiments. Data for primary cells are a mean of three experiments. […] Inhibition of cell growth was calculated using the formula: growth inhibition (%)=(1−A570 of treated/A570 of control)×100. IC50 (the concentration that inhibited cell growth by 50%) values were also determined. For evaluation of lymphocyte growth in suspension, an Alamar blue assay was performed, wherein freshly prepared mouse spleen lymphocytes were stimulated for 72 H with 2 ug/mL concanavalin A (Sigma Chemicals, St. Louis, […].). During the last 24 H, 20 μl/well of Alamar blue (Invitrogen, Carlsbad, Calif.) was added. The fluorescence intensity was measured at 530/580 (excitation/emission) in the FLUOstar Omega microplate reader (BMG LABTECH, Cary, N.C.).
Growth inhibitory effects of PCNA-I3, PCNA-I4, PCNA-I6, PCNA-I7, PCNA-I8, PCNA-I9 and PCNA-I10 were assessed in human prostate cancer cell lines. Specifically, growth inhibitory effects of PCNA-I3, PCNA-I4, PCNA-I6, PCNA-I7, PCNA-I8, PCNA-I9 and PCNA-I10 were assessed using MTT staining in LNCaP and PC-3 cells. […]

[6] = system: Prostate Endothelial cells (Mu-Pr-Endo); test: Growth inhibition, mouse prostate endothelial cells; type: cell-based; details: Endothelial cell
Procedure: as §1, §2

[7] = system: 22Rv1 prostate cancer cells; test: Growth inhibition by MTT staining, 22Rv1; type: cell-based; details: 22Rv1, 96 h, Human tumor cells, treated four days
Procedure: as §1, §2

LNCaP cells [8] = test: MTT assay, PCNA-I1 and cisplatin alone or combined, LNCaP; type: cell-based, Human; details: Homo sapiens, LNCaP
Procedure: LNCaP or PC-3 cells were treated with a variety of concentrations of PCNA-I1 (0.1-10 μM) or cisplatin (0.1-10 μM) alone, or with a variety of concentrations of a combination of PCNA-I1 (0.1-10 μM) and cisplatin (0.1-10 μM) for four days. MTT assays were performed and IC50 values for PCNA-I1 and cisplatin were determined.

[9] = system: DU145 prostate cancer cells; test: Growth inhibition by MTT staining, DU145; type: cell-based; details: DU-145, 96 h, Human tumor cells, treated four days
Procedure: as §1, §2

[10] = system: MCF-7 breast cancer cells; test: Growth inhibition by MTT staining, MCF-7; type: cell-based; details: MCF7, 96 h, Human, tumor cells, treated four days
Procedure: as §1, §2

**Q.** With `Cc1ccsc1C(=O)N/N=C/c1ccc2ccccc2c1O` [PCNA-I1] as the compound, how does the IC50 [1] read?
**A.** 1670 nM

**Q.** What about the IC50 ([2]; Mouse, Blood Vessel, normal cells, read-out: IC50 Values, Lung Endothelial Cells (immortal)) of the same compound?
**A.** 1160 nM

**Q.** What about the “Growth stimulation, Mu-Lu-Endo” value ([2]; FIG. 2(C)) of the same compound?
**A.** Moderate growth stimulation

**Q.** What about the IC50 ([2]; Mus musculus, FIG. 2(C), read-out: IC50, Mu-Lu-Endo) of the same compound?
**A.** 1160 nM

**Q.** What about the “Apoptosis, LNCaP (sub-G1 population)” value (LNCaP cells [3]) of the same compound?
**A.** induced significant apoptosis

**Q.** What about the IC50 [4] of the same compound?
**A.** 1900 nM

**Q.** What about the IC50 ([5]; 96 h, Table II, Human tumor cells, MTT, treated four days, mean of five to seven experiments, read-out: IC50 Values, PC-3) of the same compound?
**A.** 240 nM

**Q.** What about the IC50 ([5]; Homo sapiens, FIG. 2(C), read-out: IC50, PC-3) of the same compound?
**A.** 250 nM

**Q.** What about the IC50 ([6]; Mouse, Blood Vessel, normal cells, read-out: IC50 Values, Prostate Endothelial) of the same compound?
**A.** 680 nM

**Q.** What about the IC50 ([6]; Mus musculus, FIG. 2(C), read-out: IC50, Mu-Pr-Endo) of the same compound?
**A.** 677 nM

**Q.** What about the IC50 [7] of the same compound?
**A.** 180 nM

**Q.** And the IC50 (LNCaP cells [8]; 96 h, MTT, four days, single agent, read-out: IC50 doses for cell growth inhibition, LNCaP, agent alone)?
**A.** 230 nM

**Q.** What about the IC50 (LNCaP cells [8]; combined with 0.3 μM cisplatin, read-out: PCNA-I1 concentration giving 50% inhibition in combination, LNCaP) of the same compound?
**A.** 67 nM

**Q.** And the IC50 [9]?
**A.** 160 nM

**Q.** And the IC50 [10]?
**A.** 150 nM
